Each structure is given as a SMILES string.

The test system of the test is Plasmodium falciparum. The test can be described thus: GSK_TCMDC: Inhibition of Plasmodium falciparum 3D7 in whole erythrocytes, using parasite LDH activity as an index of growth. It counts as functional, organism-based. To be noted: Plasmodium falciparum, 3D7.
For `Nc1nc(N)c2c(Sc3ccc(F)cc3)cccc2n1`, the XC50 is 1070 nM. Next, `Cc1cc2c3c(N)nc(N)nc3ccc2n1C(C)C`: 8.52 nM; `O=C(/C=C/c1ccc(Br)cc1)NCCCCCN1CCC(c2c[nH]c3ccccc23)CC1`: 724 nM; `O=C(/C=C/c1ccc(Cl)c(Cl)c1)NCCCN1CCC(c2c[nH]c3ccccc23)CC1`: 966 nM.

Consider `COc1ccc2nccc([C@@H](O)CN3CCC(NC(=O)C(c4cc5ccccc5o4)N4CCN(c5ccc(F)cc5)CC4)CC3)c2c1` (stereo not given in full), for which the XC50 was determined as 197 nM. As to `Nc1c(I)cc(C(=O)Nc2ccc3nc4c(c(N)c3c2)CCCC4)cc1I`, the XC50 came to 143 nM. In turn, `O=C(NCc1ccccc1)OC1CNCCC1c1ccc(C(O)Cc2ccccc2)cc1` (stereo not given) yielded an XC50 of 576 nM. Compound `COc1ccc(C2CC(c3ccccc3)=NN2C(=O)c2ccc(Br)o2)cc1` (stereo not given) displayed an XC50 of 323 nM. `COc1cc(Nc2ccnc3cc(-c4ccncc4)ccc23)cc(OC)c1OC` gave an XC50 of 1080 nM. `O=C(/C=C/c1ccccc1Cl)Nc1ccc(Br)c(OCCN2CCN(CCN3CCOCC3)CC2)c1`: the XC50 amounted to 763 nM. With `CO/C(=C\C=C\c1cc2cc(Cl)c(Cl)cc2[nH]1)C(=O)NCCCN1CCN(c2cccc(O)c2)CC1`, the XC50 is 579 nM.

Regarding `O=S(=O)(NCCN1CCCC1)c1ccc(-c2cccc(CNCc3ccc(F)cc3)c2)cc1F`, the XC50 came out at 787 nM.

Turning to `N=C1N=C(N)NCN1OCc1ccc(Cl)c(Cl)c1`, the XC50 worked out at 194 nM. `Cc1cc(=O)c(-c2ccc(OCc3ccc(OC(F)(F)F)cc3)cc2)c(C)[nH]1` had an XC50 of 736 nM. For the compound `CC[C@H]1CN2CC[C@H]1C[C@H]2[C@H](O)c1cc(-c2ccc(Cl)c(Cl)c2)nc2ccc(OC)cc12`, the XC50 is 115 nM. The compound `Cc1nc(-c2cccc(NC(C)C(=O)Nc3cc(C(F)(F)F)ccc3N3CCOCC3)c2)cs1` (stereo not given) came in with an XC50 of 241 nM. In the case of `COc1cc(C)cc(CN2CCC(Cc3ccccc3)CC2)c1O`, the XC50 came to 1020 nM. To `CN1CCC(NC(=O)c2cccc(Nc3cc(Nc4cccc(Br)c4)ncn3)c2)CC1` belongs 1010 nM; to `Cc1ccc2[nH]c3c(NCCCN(C)C)ncnc3c2c1`, 650 nM. Regarding `CC(=O)Nc1csc(-c2cnc(/C=C(\C)C[C@@H]3OC[C@H](C[C@@H]4O[C@H]4[C@@H](C)[C@H](C)O)[C@@H](O)[C@H]3O)o2)c1`, the XC50 was determined as 178 nM.

On to `COC(=O)c1cccc(CNCc2cccc(-c3csc(-c4nc5ccccc5[nH]4)c3)c2)c1`, for which the XC50 is 693 nM. For the compound `CCO[C@H]1CN[C@H](C#Cc2cc3c(Nc4ccc(OCc5cccc(F)c5)c(Cl)c4)ncnc3s2)C1`, the XC50 turned out to be 939 nM. To `CC1(C)N=C(N)N=C(N)N1CCc1ccccc1` belongs 47.4 nM. Next, `COc1ccccc1-n1ccnc1SCC(=O)Nc1cccc(C(F)(F)F)c1`: 160 nM; `Cc1cccc2c(/C=C/C(=O)NC3CCC(CCN4CCc5ccc(C#N)cc5CC4)CC3)c[nH]c12` (stereo not given): 1220 nM; `NCCCNc1nc(Nc2cccc(C(N)=O)c2)c2c(=O)[nH]ccc2n1`: 594 nM. Consider `CC(Cc1ccc(-c2nc3ccccc3[nH]2)cc1)NCC(O)c1cccc(C(F)(F)F)c1` (stereo not given), for which the XC50 is 352 nM. In turn, `O=C(Nc1cccc(CN2CCCN(CC3CCCCC3)CC2)c1)c1cc2ccccc2s1` gave an XC50 of 814 nM.

`OCCN1CCN(C(=S)NC2CCCCC2)CC1` came in with an XC50 of 1100 nM. For `O=C(/C=C/c1ccc(Cl)cc1)NCCCCCN1CCC(C(=O)Nc2ccc(Cl)c(Cl)c2)CC1`, the XC50 amounted to 766 nM. As for `N#Cc1cc([N+](=O)[O-])ccc1-n1nc(C(N)=O)n(Cc2cccc(F)c2)c1=S`, the XC50 came out at 721 nM. Next, `Cc1nn(-c2cccc(C(F)(F)F)c2)c2sc(C(=O)NC3CCN(C(C)C)CC3)cc12`: 898 nM; `COc1cccc(C2CCN(CCN3CCC(NC(=O)c4ccc(-c5ccc(C(F)(F)F)cc5)cc4)CC3)CC2)c1`: 203 nM; `Cc1nc2ccc(S(=O)(=O)Nc3ccc(C(=O)N[C@@H](CCC(=O)O)C(=O)O)cc3)cc2c(=O)[nH]1`: 1010 nM.

`c1ccc(CNc2nc(NCCc3c[nH]cn3)nc(N3CCCC4CCCCC43)n2)cc1` (stereo not given) showed an XC50 of 834 nM. Take `CC(Cc1ccc(CNC(=O)c2ccc(CC(C)NCCc3cccc(Cl)c3)cc2)cc1)NCCc1cccc(Cl)c1` (stereo not given): the XC50 was 696 nM. In the case of `N#Cc1cnc2cc(-c3cnc(CNCCN4CCOCC4)s3)ccc2c1Nc1ccc(Oc2ccccc2)cc1`, the XC50 worked out at 726 nM.

The compound `Cc1cc(CNC(c2ccccc2)C2CCC2)cc(C)c1O` (stereo not given) gave an XC50 of 890 nM. To `CCc1ccccc1NC(=O)CN1CCN(c2ncnc3scc(-c4ccc(F)cc4)c23)CC1` belongs 702 nM. `COc1cc(NC(=O)c2ccc(-c3ccccc3)cc2)ccc1OCCCN1CCC(c2ccccc2)CC1` registered an XC50 of 752 nM. Compound `CC(Cc1ccc(S(=O)(=O)N(C(C)C)C(C)C)cc1)NCC(O)c1cccc(C(F)(F)F)c1` (stereo not given) registered an XC50 of 685 nM. Next, `O=C(NCCN1CCCC1)N1CCCN(c2ncnc3cc(-c4ccc(F)cc4)sc23)CC1`: 902 nM; `O=[N+]([O-])c1ccccc1C=NN=c1c2c([nH]c3ccccc13)CCCC2`: 311 nM. `CCC(CC)C(CC(=O)NC(C)(C)CCc1ccccc1OC)Nc1ccc(C#N)c2ccccc12` (stereo not given) showed an XC50 of 796 nM.

Turning to `O=C(/C=C/c1c(Cl)cccc1Cl)NC1CCC(CN2CCC(Cc3cc4ccccc4[nH]3)CC2)CC1` (stereo not given), the XC50 is 975 nM. To `NCCCN(Cc1ccc(Cl)c(Cl)c1)C(=O)Nc1ccc(Cl)c(Cl)c1` belongs 898 nM; to `CC(=NNC(S)=NCc1ccco1)c1ccccn1`, 254 nM. For the compound `Cc1ccc(C(=O)N2CCN(Cc3nccs3)CC2)cc1`, the XC50 is 1010 nM. For `COc1ccc(CN(C)CCCc2ccc(NC(=O)c3cccc4c(=O)c5cccc(F)c5[nH]c34)cc2)cc1OC`, the XC50 was 937 nM.

In turn, `COc1ccc2c(=O)ccn(CCN3CCC(NCc4ccc5c(n4)NC(=O)CS5)CC3)c2c1` registered an XC50 of 233 nM. Compound `CNC(=N)c1ccc(NC(=O)c2ccc(C(=O)Nc3ccc(C(=N)NC)cc3)cc2)cc1` returned an XC50 of 47.1 nM.

`CN(c1cc(NC(=O)c2ccc(F)cc2)ccn1)C1CCN(Cc2cccc(C#N)c2)CC1` showed an XC50 of 831 nM.

`O=C(Nc1ccc(Oc2ccccc2)cc1)N[C@H]1CCN(Cc2ccc(OCCCN3CCCCC3)cc2)C1` returned an XC50 of 179 nM.

The compound `CCNC[C@H]1CCCN1CCOc1ccc(-n2cnc3cc(-c4ccc(Cl)cc4)sc3c2=O)cc1OC` gave an XC50 of 808 nM. As to `CC(C)(C)NC(=O)C(c1ccc(F)cc1)N(C(=O)c1ccc(CN2CCOCC2)o1)c1ccc(C2CCCCC2)cc1` (stereo not given), the XC50 was 925 nM. As for `CCOc1ccc(NC(=O)c2ccc(NCCCN3CC(C)CC(C)C3)c([N+](=O)[O-])c2)cc1` (stereo not given), the XC50 was 705 nM. In turn, `CC(=O)OC[C@H]1O[C@@H](C#Cc2ccccc2)[C@H](OC(C)=O)[C@@H](OC(C)=O)[C@@H]1OC(C)=O` had an XC50 of 283 nM. As to `O=C(NCCCCN1CCC(c2cccc3ccccc23)CC1)c1ccc(NC(=O)c2ccc(Cl)cc2)cc1`, the XC50 came out at 784 nM. Take `CC(C)(C)c1ccccc1OC(=O)c1ccccc1`: the XC50 came out at 740 nM. To `Cn1cncc1-c1ccc2ncnc(Nc3ccc4c(cnn4Cc4ccccc4)c3)c2c1` belongs 180 nM; to `COc1ccc(CCN(C)CCCOc2ccc(NC(=O)c3cccc4c(=O)c5ccccc5[nH]c34)cc2)cc1OC`, 912 nM; to `CCC/C=C/c1c(CNCCCNc2cc(=O)c3ccccc3[nH]2)sc(CC)c1Br`, 889 nM.

`Cc1ccccc1C1=CCN(CCCN2c3ccccc3Sc3ccc(Cl)cc32)CC1`: the XC50 is 871 nM.

Regarding `COc1ccc([N+](=O)[O-])cc1N(Cc1ccccc1-c1ccccc1)S(=O)(=O)c1ccc(C(F)(F)F)cc1[N+](=O)[O-]`, the XC50 is 1050 nM. `CC(C)C[C@H](NC(=O)c1ccc(F)cc1)C(=O)N[C@H](/C=N/NC(=O)c1ccccc1)CCc1ccccc1` registered an XC50 of 812 nM. The compound `CC(C)(c1ccccc1)c1ccc(O)c(CN2CCOCC2)c1` gave an XC50 of 984 nM. `COc1cccc2cc(C(=O)N[C@@H](CC(C)C)C(=O)N[C@H](/C=N/NC(=O)OC(C)(C)C)CC(=O)OC(C)(C)C)oc12`: the XC50 was determined as 403 nM.

As for `CN(C)CCOc1cc(NC(=O)Nc2cccc([N+](=O)[O-])c2)ccc1I`, the XC50 was 743 nM.

`C=CCn1c(SCC(=O)Nc2cc(Cl)ccc2Cl)nc2sc(C)cc2c1=O` gave an XC50 of 71.6 nM. The compound `N#Cc1ccc(N[C@@H](CC2CCCCC2)C(=O)NCc2cc(F)c(F)cc2F)c2ccccc12` yielded an XC50 of 946 nM.

`CC(C)CCNCc1ccc(OCc2cccc(COc3ccc(CNCCC(C)C)cc3I)c2)c(I)c1` came in with an XC50 of 453 nM. Consider `CCc1ccnc2c(N3CCCC3=O)cc(C(=O)N[C@@H](Cc3ccccc3)[C@H](O)CNC3CCOCC3)cc12`, for which the XC50 turned out to be 381 nM. Regarding `N#Cc1ccc(N2CCN(Cc3ccc(-c4ccc(-c5nc6cc(F)ccc6[nH]5)s4)cc3)CC2)nc1`, the XC50 was 854 nM.

On to `O=C(NC1CCN(Cc2ccccc2)CC1)c1ccc(-c2nc3cc(Cl)c(Cl)cc3[nH]2)s1`, for which the XC50 turned out to be 308 nM.

Turning to `COc1ccc(-c2ccc(CNC(=O)c3ccc(C#N)cc3)c(F)c2)cc1CN1CCCN(C)CC1`, the XC50 is 1140 nM. Regarding `CCCc1cc(NCC)nc(Nc2ccc(C)cc2)n1`, the XC50 came out at 894 nM.

In the case of `N#Cc1ccc2[nH]cc(CN3CCC4(CC3)CN(CCNCc3ccccc3)C(=O)CO4)c2c1`, the XC50 was 758 nM. In the case of `CSc1ccccc1NC(=S)NC1CCN(CCCCCNC(=O)/C=C/c2ccc(Cl)c(Cl)c2)CC1`, the XC50 is 778 nM.

Turning to `Cc1cccc(-c2nn(-c3ccccc3)c3[nH]c(=O)c(CNC4CCCC4)cc23)c1`, the XC50 amounted to 759 nM. Next, `O=c1[nH]ccc2nc(N[C@@H]3CCCNC3)nc(Nc3ccc(S(=O)(=O)N4CCOCC4)cc3)c12`: 742 nM. Next, `CC(C)c1ncc(-c2ccncc2)c(C2CCC(CNC(=O)c3cccnc3)CC2)n1` (stereo not given): 776 nM. To `O=C(c1cccc(-c2noc(C(F)(F)F)n2)c1)N1CCN(c2nsc3ccccc23)CC1` belongs 145 nM; to `Nc1ncc(-c2ccsc2)c2ccc(-c3cc(NCc4ccccc4)ncn3)cc12`, 861 nM.

For `COc1cc2nc(N3CCC(c4ccccc4)CC3)nc(NCc3ccc(=O)[nH]c3)c2cc1OC`, the XC50 came to 755 nM. Regarding `CC(CN1CCN(C)CC1)C(=O)Nc1cccc(-c2ccc(-c3nc4ccccc4[nH]3)s2)c1` (stereo not given), the XC50 was 632 nM.
